Measured values: ChEMBL document CHEMBL1201862, “PubChem BioAssay data set” (2004)
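96-well plates; 48 h exposure; 5 concentrations. Endpoints by linear interpolation between flanking doses. Not reached: highest tested concentration assigned. GI50: concentration for 50% inhibition of growth.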 Active and inactive are the calls of the source. Cut-off read from the data, not from the text of the source: active = GI50 up to about 1.1 µM and inactive = higher.

Tests used:
Assay in all cases: DTP human tumour cell line panel, 48 h
A549 = test system: A549
ACHN = test system: ACHN
CCRF-CEM = test system: CCRF-CEM
HL-60 = test system: HL-60
HOP-92 = test system: HOP-92
MOLT-4 = test system: MOLT-4
NCI-H226 = test system: NCI-H226
NCI-H460 = test system: NCI-H460
NCI-H522 = test system: NCI-H522
RPMI-8226 = test system: RPMI-8226
SF-268 = test system: SF-268
SN12C = test system: SN12C
SNB-19 = test system: SNB-19
SW-620 = test system: SW-620
UACC-257 = test system: UACC-257
UACC-62 = test system: UACC-62
UO-31 = test system: UO-31
NCI/ADR-RES = test system: NCI/ADR-RES
MDA-N = test system: MDA-N

Row | Compound | GI50 (A549) | GI50 (ACHN) | GI50 (CCRF-CEM) | GI50 (HL-60) | GI50 (HOP-92) | GI50 (MOLT-4) | GI50 (NCI-H226) | GI50 (NCI-H460) | GI50 (NCI-H522) | GI50 (RPMI-8226) | GI50 (SF-268) | GI50 (SN12C) | GI50 (SNB-19) | GI50 (SW-620) | GI50 (UACC-257) | GI50 (UACC-62) | GI50 (UO-31) | GI50 (NCI/ADR-RES) | GI50 (MDA-N)
1 | C[S+]=c1sc2ccccc2s1 | > 100 µM (inactive) | > 100 µM (inactive) | > 100 µM (inactive) | > 100 µM (inactive) | > 100 µM (inactive) | > 100 µM (inactive) | > 100 µM (inactive) | > 100 µM (inactive) | > 100 µM (inactive) | > 100 µM (inactive) | > 100 µM (inactive) | > 100 µM (inactive) | > 100 µM (inactive) | > 100 µM (inactive) | > 100 µM (inactive) | > 100 µM (inactive) | > 100 µM (inactive) | – | –
2 | CCOC(=O)c1ccc(Nc2nc3ccc(C(F)(F)F)cc3nc2-c2ccccc2)cc1 | > 100 µM (inactive) | > 100 µM (inactive) | 63.4 µM (inactive) | 61.1 µM (inactive) | – | 38.1 µM (inactive) | > 100 µM (inactive) | > 100 µM (inactive) | 47.9 µM (inactive) | > 100 µM (inactive) | > 100 µM (inactive) | 74.8 µM (inactive) | > 100 µM (inactive) | > 100 µM (inactive) | > 100 µM (inactive) | 28.2 µM (inactive) | > 100 µM (inactive) | > 100 µM (inactive) | –
3 | C[n+]1c(-c2ccccc2)cc2/c(=C\c3ccccc3)c3ccccc3n21 | 3.96 µM (inactive) | 3.13 µM (inactive) | 0.582 µM (active) | 0.0452 µM (active) | 1.69 µM (inactive) | 1.73 µM (inactive) | 0.418 µM (active) | – | 0.363 µM (active) | – | 0.593 µM (active) | 0.308 µM (active) | 0.731 µM (active) | 1.06 µM (active) | 0.991 µM (active) | 1.3 µM (inactive) | 2.95 µM (inactive) | 14.6 µM (inactive) | 0.948 µM (active)
4 | COc1ccc(C(=O)C(C(=O)CC(=O)Nc2cccc(C(F)(F)F)c2)c2ccc(OC)cc2)cc1 (stereo unspecified) | > 100 µM (inactive) | > 100 µM (inactive) | > 100 µM (inactive) | > 100 µM (inactive) | > 100 µM (inactive) | > 100 µM (inactive) | > 100 µM (inactive) | > 100 µM (inactive) | > 100 µM (inactive) | > 100 µM (inactive) | > 100 µM (inactive) | > 100 µM (inactive) | > 100 µM (inactive) | > 100 µM (inactive) | > 100 µM (inactive) | > 100 µM (inactive) | > 100 µM (inactive) | – | –
5 | CCc1ccccc1N1C(=O)C(=O)C(c2nc3ccccc3s2)C(=O)C1=O | > 100 µM (inactive) | > 100 µM (inactive) | 37.6 µM (inactive) | 40.3 µM (inactive) | > 100 µM (inactive) | 42.2 µM (inactive) | > 100 µM (inactive) | > 100 µM (inactive) | > 100 µM (inactive) | 72.4 µM (inactive) | > 100 µM (inactive) | 63.4 µM (inactive) | > 100 µM (inactive) | 83.8 µM (inactive) | > 100 µM (inactive) | > 100 µM (inactive) | > 100 µM (inactive) | – | –
6 | COC(=O)CCC(NC(=S)N/N=C(\C)c1cnccn1)C(=O)OC (stereo unspecified) | 58.7 µM (inactive) | 29.8 µM (inactive) | 16.8 µM (inactive) | 14.8 µM (inactive) | > 100 µM (inactive) | 15.7 µM (inactive) | 44.5 µM (inactive) | 53 µM (inactive) | 27 µM (inactive) | 44.9 µM (inactive) | 35.4 µM (inactive) | 86.7 µM (inactive) | > 100 µM (inactive) | 49.3 µM (inactive) | 33.8 µM (inactive) | 28.6 µM (inactive) | 49.1 µM (inactive) | – | –
7 | N#CC(C#N)=c1ccc(=C2N3CCCC3CN2C23CC4CC(CC(C4)C2)C3)cc1 (stereo unspecified) | > 100 µM (inactive) | > 100 µM (inactive) | > 100 µM (inactive) | > 100 µM (inactive) | > 100 µM (inactive) | > 100 µM (inactive) | > 100 µM (inactive) | > 100 µM (inactive) | > 100 µM (inactive) | > 100 µM (inactive) | 55.8 µM (inactive) | > 100 µM (inactive) | 84.1 µM (inactive) | > 100 µM (inactive) | > 100 µM (inactive) | 90.6 µM (inactive) | > 100 µM (inactive) | – | –
8 | C[n+]1c2ccccc2c(CNC(CS)C(=O)O)c2ccccc21 (stereo unspecified) | 30.3 µM (inactive) | 27.2 µM (inactive) | 24.4 µM (inactive) | 17.3 µM (inactive) | 18.7 µM (inactive) | 12.4 µM (inactive) | 29.8 µM (inactive) | 21.8 µM (inactive) | 17.8 µM (inactive) | 16.9 µM (inactive) | 20.4 µM (inactive) | 30.5 µM (inactive) | 32.7 µM (inactive) | 32.4 µM (inactive) | 38.5 µM (inactive) | 14.6 µM (inactive) | 18 µM (inactive) | – | –
